The source of these data is patent US20240116985A1, “STAPLED PEPTIDES AND METHODS THEREOF” (priority 2020, published 2024).

Assay [1] addresses T1, full-length beta-Catenin (Uniprot ID P35222) (Homo sapiens, UniProt P35222).
T1 construct: 10 nM full-length beta-Catenin (Uniprot ID P35222)
T1 sequence (P35222 1-781): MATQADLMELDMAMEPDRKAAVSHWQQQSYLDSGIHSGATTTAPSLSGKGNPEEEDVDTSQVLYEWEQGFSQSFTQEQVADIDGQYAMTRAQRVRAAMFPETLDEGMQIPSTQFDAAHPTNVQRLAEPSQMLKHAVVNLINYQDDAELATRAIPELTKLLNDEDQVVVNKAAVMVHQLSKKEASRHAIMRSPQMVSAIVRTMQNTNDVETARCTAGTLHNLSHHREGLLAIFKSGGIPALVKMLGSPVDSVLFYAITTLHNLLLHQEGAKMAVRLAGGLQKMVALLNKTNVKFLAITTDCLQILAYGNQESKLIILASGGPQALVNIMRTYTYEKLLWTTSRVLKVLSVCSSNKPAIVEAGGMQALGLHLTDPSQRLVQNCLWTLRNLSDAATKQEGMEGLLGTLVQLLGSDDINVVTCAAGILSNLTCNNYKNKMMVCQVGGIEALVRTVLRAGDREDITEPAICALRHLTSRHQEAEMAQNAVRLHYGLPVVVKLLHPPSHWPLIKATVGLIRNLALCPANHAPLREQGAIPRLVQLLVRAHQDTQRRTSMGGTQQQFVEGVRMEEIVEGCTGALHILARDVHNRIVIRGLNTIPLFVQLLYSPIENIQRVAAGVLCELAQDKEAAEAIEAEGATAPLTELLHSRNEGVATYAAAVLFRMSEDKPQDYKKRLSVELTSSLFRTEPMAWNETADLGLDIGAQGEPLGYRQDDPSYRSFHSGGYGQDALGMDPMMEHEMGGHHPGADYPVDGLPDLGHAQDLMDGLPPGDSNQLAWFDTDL
Kind of assay: Fluorescence polarization IC50 (beta-catenin / 5FAM-TCF4 10-53 competition). It counts as binding. To be noted: fluorescence polarization; read-out: beta-Catenin FP IC50. (In general: Polarisation of emitted light reports the rotation of a fluorescent probe.)

Assay [2] concerns the target T2, beta-catenin/TCF4 engagement (Homo sapiens, UniProt P35222).
T2 construct: expressed in transfected cells; host or cells: HEK293
T2 sequence (P35222 1-781): T1 sequence (P35222 1-781)
Kind of assay: Nano-BRET target engagement assay (B-cat-Halo & TCF4-Luc in HEK293 cells). To be noted: absolute IC50; read-out: NanoBRET Abs IC50. It counts as cell-based. Background: BRET reads energy transfer from a luciferase to a nearby fluorophore.

As usually defined, the IC50 is the concentration that inhibits the measured activity by half. In the case of `CC(=O)N1CCC[C@]12CC=CCCCC1(CCCC=CCCCOC(=O)N3CC[C@@](C(=O)N[C@@H](Cc4ccsc4)C(=O)N[C@@H](Cc4ccc5ccccc5c4)C(=O)N[C@@H](CCC(N)=O)C(N)=O)(C3)NC(=O)[C@H]([C@@H](C)O)NC(=O)[C@H](Cc3ccccc3)NC(=O)[C@H](C)NC(=O)[C@H](C)NC(=O)[C@H](CC(=O)O)NC(=O)[C@H](CC(=O)O)NC1=O)NC(=O)[C@H](CC(C)(C)C)NC(=O)[C@H](CC(=O)O)NC2=O` (stereo partly drawn) [I-1233, Ac-PL3-Asp-Npg-B5-Asp-Asp-Ala-Ala-Phe-Thr-PyrS2-3Thi-2NapA-Gln-NH2], the 50% inhibitory concentration (IC50) in assay [1] turned out to be 24 nM; in assay [2], 54500 nM.
On the same counts, the results for `CC(=O)N1CCC[C@]12CC=CCCCC1(CCCC=CCCCOC(=O)N3CC[C@@](C(=O)N[C@@H](Cc4ccsc4)C(=O)N[C@@H](Cc4cccc5ccccc45)C(=O)N[C@@H](CCC(N)=O)C(N)=O)(C3)NC(=O)[C@H](CC(C)C)NC(=O)[C@H](Cc3ccccc3)NC(=O)[C@H](C)NC(=O)[C@H](C)NC(=O)[C@H](CC(=O)O)NC(=O)[C@H](CC(=O)O)NC1=O)NC(=O)[C@H](CC(C)(C)C)NC(=O)[C@H](CC(=O)O)NC2=O` (stereo partly drawn) [I-1234, Ac-PL3-Asp-Npg-B5-Asp-Asp-Ala-Ala-Phe-Leu-PyrS2-3Thi-1NapA-Gln-NH2] are 41 nM and 23900 nM.
Consider `CC(=O)N1CCC[C@]12CC=CCCCC1(CCCC=CCCCOC(=O)N3CC[C@@](C(=O)N[C@@H](Cc4ccsc4)C(=O)N[C@@H](Cc4ccc5ccccc5c4)C(=O)N[C@@H](CCC(N)=O)C(N)=O)(C3)NC(=O)[C@H](CC(C)C)NC(=O)[C@H](Cc3ccccc3)NC(=O)[C@H](C)NC(=O)[C@H](C)NC(=O)[C@H](CC(=O)O)NC(=O)[C@H](CC(=O)O)NC1=O)NC(=O)[C@H](CC(C)(C)C)NC(=O)[C@H](CC(=O)O)NC2=O` (stereo partly drawn) [I-1235, Ac-PL3-Asp-Npg-B5-Asp-Asp-Ala-Ala-Phe-Leu-PyrS2-3Thi-2NapA-Gln-NH2], for which the IC50 in assay [1] was determined as 27 nM; in assay [2], 24800 nM.
On to `CC(=O)N1CCC[C@]12CC=CCCCC1(CCCC=CCCCOC(=O)N3CC[C@@](C(=O)N[C@@H](Cc4ccccc4Cl)C(=O)N[C@@H](Cc4cccc5ccccc45)C(=O)N[C@@H](CCC(N)=O)C(N)=O)(C3)NC(=O)[C@H](CC(C)C)NC(=O)[C@H](Cc3ccccc3)NC(=O)[C@H](C)NC(=O)[C@H](C)NC(=O)[C@H](CC(=O)O)NC(=O)[C@H](CC(=O)O)NC1=O)NC(=O)[C@H](CC(C)(C)C)NC(=O)[C@H](CC(=O)O)NC2=O` (stereo partly drawn) [I-1236, Ac-PL3-Asp-Npg-B5-Asp-Asp-Ala-Ala-Phe-Leu-PyrS2-2C1F-1NapA-Gln-NH2], for which the 50% inhibitory concentration (IC50) in assay [1] came to 69 nM; in assay [2], 20900 nM.
As for `CC(=O)N1CCC[C@]12CC=CCCCC1(CCCC=CCCCOC(=O)N3CC[C@@](C(=O)N[C@@H](Cc4ccccc4Cl)C(=O)N[C@@H](Cc4ccc5ccccc5c4)C(=O)N[C@@H](CCC(N)=O)C(N)=O)(C3)NC(=O)[C@H](CC(C)C)NC(=O)[C@H](Cc3ccccc3)NC(=O)[C@H](C)NC(=O)[C@H](C)NC(=O)[C@H](CC(=O)O)NC(=O)[C@H](CC(=O)O)NC1=O)NC(=O)[C@H](CC(C)(C)C)NC(=O)[C@H](CC(=O)O)NC2=O` (stereo partly drawn) [I-1237, Ac-PL3-Asp-Npg-B5-Asp-Asp-Ala-Ala-Phe-Leu-PyrS2-2C1F-2NapA-Gln-NH2], the IC50 in assay [1] stood at 31 nM; in assay [2] it was 39900 nM.
For the compound `CC(=O)N1CCC[C@]12CC=CCCCC1(CCCC=CCCCOC(=O)N3CC[C@@](C(=O)N[C@@H](Cc4ccsc4)C(=O)N[C@@H](Cc4cccc5ccccc45)C(=O)N[C@@H](CO)C(N)=O)(C3)NC(=O)[C@H](CC(C)C)NC(=O)[C@H](Cc3ccccc3)NC(=O)[C@H](C)NC(=O)[C@H](C)NC(=O)[C@H](CC(=O)O)NC(=O)[C@H](CC(=O)O)NC1=O)NC(=O)[C@H](CC(C)(C)C)NC(=O)[C@H](CC(=O)O)NC2=O` (stereo partly drawn) [I-1238, Ac-PL3-Asp-Npg-B5-Asp-Asp-Ala-Ala-Phe-Leu-PyrS2-3Thi-1NapA-Ser-NH2], the IC50 was determined as 44 nM in assay [1] and 23100 nM in assay [2].
`CC(=O)N1CCC[C@]12CC=CCCCC1(CCCC=CCCCOC(=O)N3CC[C@@](C(=O)N[C@@H](Cc4ccsc4)C(=O)N[C@@H](Cc4ccc5ccccc5c4)C(=O)N[C@@H](CO)C(N)=O)(C3)NC(=O)[C@H](CC(C)C)NC(=O)[C@H](Cc3ccccc3)NC(=O)[C@H](C)NC(=O)[C@H](C)NC(=O)[C@H](CC(=O)O)NC(=O)[C@H](CC(=O)O)NC1=O)NC(=O)[C@H](CC(C)(C)C)NC(=O)[C@H](CC(=O)O)NC2=O` (stereo partly drawn) [I-1239, Ac-PL3-Asp-Npg-B5-Asp-Asp-Ala-Ala-Phe-Leu-PyrS2-3Thi-2NapA-Ser-NH2]: the IC50 in assay [1] was 33 nM; in assay [2], 31800 nM.
For the compound `CCNC(=O)[C@H](CCC(N)=O)NC(=O)[C@H](Cc1csc2ccccc12)NC(=O)[C@H](Cc1ccccc1Cl)NC(=O)[C@]12CCN(C1)C(=O)OCCCC=CCCCC1(CCCC=CC[C@]3(CCCN3C(C)=O)C(=O)N[C@@H](CC(=O)O)C(=O)N[C@@H](CC(C)(C)C)C(=O)N1)C(=O)N[C@@H](CC(=O)O)C(=O)N[C@@H](CC(=O)O)C(=O)N[C@@H](C)C(=O)N[C@@H](C)C(=O)N[C@@H](Cc1ccccc1)C(=O)N[C@@H](CC(C)C)C(=O)N2` (stereo partly drawn) [I-1248, Ac-PL3-Asp-Npg-B5-Asp-Asp-Ala-Ala-Phe-Leu-PyrS2-2C1F-BztA-Gln-NHEt], the IC50 in assay [1] was 19 nM; in assay [2], 29700 nM.
Turning to `CC(=O)N1CCC[C@]12CC=CCCCC1(CCCC=CCCCOC(=O)N3CC[C@@](C(=O)N[C@@H](Cc4ccccc4Cl)C(=O)N[C@@H](Cc4csc5ccccc45)C(=O)N[C@H](CO)[C@@H](C)O)(C3)NC(=O)[C@H](CC(C)C)NC(=O)[C@H](Cc3ccccc3)NC(=O)[C@H](C)NC(=O)[C@H](C)NC(=O)[C@H](CC(=O)O)NC(=O)[C@H](CC(=O)O)NC1=O)NC(=O)[C@H](CC(C)(C)C)NC(=O)[C@H](CC(=O)O)NC2=O` (stereo partly drawn) [I-1249, Ac-PL3-Asp-Npg-B5-Asp-Asp-Ala-Ala-Phe-Leu-PyrS2-2C1F-BztA-Thro1], the values for the IC50 in assay [1] and in assay [2] were 17 nM and 25200 nM, respectively.
On the same counts, the results for `CC(=O)N1CCC[C@]12CC=CCCCC1(CCCC=CCCCOC(=O)N3CC[C@@](C(=O)N[C@@H](Cc4ccccc4Cl)C(=O)N[C@@H](Cc4csc5ccccc45)C(=O)N[C@@H](C)CO)(C3)NC(=O)[C@H](CC(C)C)NC(=O)[C@H](Cc3ccccc3)NC(=O)[C@H](C)NC(=O)[C@H](C)NC(=O)[C@H](CC(=O)O)NC(=O)[C@H](CC(=O)O)NC1=O)NC(=O)[C@H](CC(C)(C)C)NC(=O)[C@H](CC(=O)O)NC2=O` (stereo partly drawn) [I-1250, Ac-PL3-Asp-Npg-B5-Asp-Asp-Ala-Ala-Phe-Leu-PyrS2-2C1F-BztA-Alao1] are 31 nM and over 20000 nM.
In the case of `C[C@@H]1NC(=O)[C@H](C)NC(=O)[C@H](CC(=O)O)NC(=O)[C@H](CC(=O)O)NC(=O)C2(CCCC=CCCCOC(=O)N3CC[C@@](C(=O)N[C@@H](Cc4ccccc4Cl)C(=O)N[C@@H](Cc4csc5ccccc45)C(=O)N[C@@H](C(N)=O)[C@H](C)O)(C3)NC(=O)[C@H](CC(N)=O)NC(=O)[C@H](Cc3ccccc3)NC1=O)CCCC=CC[C@]1(CCCN1S(C)(=O)=O)C(=O)N[C@@H](CC(=O)O)C(=O)N[C@@H](CC(C)(C)C)C(=O)N2` (stereo partly drawn) [I-1258, MeSO2-PL3-Asp-Npg-B5-Asp-Asp-Ala-Ala-Phe-Asn-PyrS2-2C1F-BztA-dThr-NH2], the IC50 is 17 nM in assay [1] and over 20000 nM in assay [2].
Turning to `COCCC(=O)N1CCC[C@]12CC=CCCCC1(CCCC=CCCCOC(=O)N3CC[C@@](C(=O)N[C@@H](Cc4ccccc4Cl)C(=O)N[C@@H](Cc4csc5ccccc45)C(=O)N[C@@H](C(N)=O)[C@H](C)O)(C3)NC(=O)[C@H](CC(N)=O)NC(=O)[C@H](Cc3ccccc3)NC(=O)[C@H](C)NC(=O)[C@H](C)NC(=O)[C@H](CC(=O)O)NC(=O)[C@H](CC(=O)O)NC1=O)NC(=O)[C@H](CC(C)(C)C)NC(=O)[C@H](CC(=O)O)NC2=O` (stereo partly drawn) [I-1259, MeOPr-PL3-Asp-Npg-B5-Asp-Asp-Ala-Ala-Phe-Asn-PyrS2-2C1F-BztA-dThr-NH2], the IC50 in assay [1] came out at 10 nM; in assay [2], 18100 nM.
With `CC(=O)N1CCC[C@]12CC=CCCCC1(CCCC=CCCCOC(=O)N3CC[C@@](C(=O)N[C@@H](Cc4ccccc4)C(=O)N[C@@H](Cc4csc5ccccc45)C(=O)N[C@@H](CO)C(N)=O)(C3)NC(=O)[C@H]([C@@H](C)O)NC(=O)[C@H](Cc3cccc(C(F)(F)F)c3)NC(=O)[C@H](C)NC(=O)[C@H](C)NC(=O)[C@H]([C@@H](C)O)NC(=O)[C@H](CC(=O)O)NC1=O)NC(=O)[C@H](CC(C)(C)C)NC(=O)[C@H](CC(=O)O)NC2=O` (stereo partly drawn) [I-1268, Ac-PL3-Asp-Npg-B5-Asp-Thr-Ala-Ala-3F3MeF-Thr-PyrS2-Phe-BztA-Ser-NH2], the IC50 in assay [1] is 198 nM; in assay [2], 28400 nM.
